Legend:
[1] = test system: NE deficient patients; experiment: Physiological and pharmacological autonomic function tests in NE deficient patients; type: in vivo, human; conditions: for block of heart rate increase during strain phase (phase II) of the Valsalva maneuver: human, in vivo
Excerpt: We collected DNA samples from two patients with NE deficiency, and sequenced all exons and exon/intron junctions of their DBH, Phox2a, and Phox2b genes. Resulting novel variants were then examined in the first degree relatives of the NE deficient patients, healthy European-American controls, and in patients with autonomic disorders other than NE deficiency. […] These patients have been previously reported (Robertson D, et al. N Engl J Med; 314:1494, 1986; Biaggioni I, et al. Neurology, 40:370, 1990). The patients were evaluated on the Vanderbilt General Clinical Research Center while in balance on a 150 mEq sodium and 80 mEq potassium diet one week after discontinuation of medications. Both direct and indirect hemodynamic monitoring was carried out and a variety of physiological and pharmacological tests were employed. Catecholamines and their metabolites were analyzed by radioenzymatic and liquid chromatographic methods as described previously (Robertson D, et al. N Engl J Med, 314:1494, 1986; O'Connor D T, et al. Clin Sci, 86:149, 1994).

[2] = test system: CHF patients; conditions: recent clinical studies; cited from earlier work
[3] = test system: NE deficient patients; conditions: Biaggioni et al. Lancet 1987; cited from earlier work
[4] = test system: DBH-/- mouse embryos; conditions: DBH-/- embryos that usually die in utero; Thomas et al.; cited from earlier work

CC(C)NCC(O)COc1cccc2ccccc12 (centres unmarked) [propranolol]
block of heart rate increase during strain phase (phase II) of the Valsalva maneuver [1]: not

COc1ccccc1OCCNCC(O)COc1cccc2[nH]c3ccccc3c12 (centres unmarked) [carvedilol]
mortality and risk of death and hospitalization [2]: reduced mortality and the risk of death and hospitalization

CC(C)NCC(O)c1ccc(O)c(O)c1 (centres unmarked) [isoproterenol]
hypersensitivity to the tachycardic effect of the β-adrenoreceptor agonist ([1]; two NE deficient patients): three-fold hypersensitivity

CN1[C@@H]2CC[C@H]1C[C@@H](OC(=O)C(CO)c1ccccc1)C2 (some centres unmarked) [atropine]
block of heart rate increase during strain phase (phase II) of the Valsalva maneuver [1]: blocked

NCCc1ccc(O)cc1 [tyramine]
response to indirectly acting sympathomimetic amine ([1]; 8 mg IV): absent response

COC(=O)[C@@H]1[C@H]2C[C@H]3c4[nH]c5ccccc5c4CCN3C[C@@H]2CC[C@@H]1O [yohimbine]
effect on blood pressure ([1]; 10 mg po): no effect
effect on plasma catecholamines ([1]; 10 mg po): no effect

CNC[C@H](O)c1cccc(O)c1 [phenylephrine]
hypersensitivity to intravenous α1-adrenoreceptor agonist ([1]; intravenous, two NE deficient patients): four-fold hypersensitivity

N[C@H](C(=O)O)[C@H](O)c1ccc(O)c(O)c1 [DOPS, dihydroxyphenylserine]
treatment of autonomic and biochemical deficits of NE deficient patients [3]: successfully treated
rescue of homozygous mouse embryos [4]: rescued homozygous mouse embryos

Clc1cccc(Cl)c1N=C1NCCN1 [clonidine]
effect on arterial pressure ([1]; 0.3 mg po, decrease expected): increase in arterial pressure

Reference: US20030040015A1, “Methods and reagents for identifying compounds and mutations that modulate dopamine beta-hydroxylase activity” (priority 2001, published 2003)
